Laboratory results taken from paper PMC4552636, “Pharmacokinetics, Tissue Distribution, and Anti-Lipogenic/Adipogenic Effects of Allyl-Isothiocyanate Metabolites” (PLoS ONE, 2015).

What was measured:
[1] = rat, in vivo, po
Experimental: (§5) Male Sprague-Dawley rats with an average weight of approximately 250 g were purchased from Orient Bio Inc. (Seoul, South Korea) and acclimatized to the laboratory conditions (12:12 h light-dark cycle, temperature of 24°C, and humidity of 55%) for 1 week. Animals were provided the American Institute of Nutrition-93 (AIN-93) diet and water ad libitum during acclimation. On the dosing day, rats were fasted for 6 h and then administered AITC (25 mg/kg of body weight) as a suspension (1 mL) in polyethylene glycol using an oral zonde needle. After a single-dose oral administration of AITC, rats were sacrificed under anesthesia (80 mg/kg ketamine + 8 mg/kg xylazine) at different time points after dosing. Blood samples were collected from the abdominal aorta in heparinized syringes. Samples were immediately centrifuged at 3,000 × g for 10 min and the resulting plasma samples were kept frozen at -80°C until analysis. The liver, heart, spleen, kidney, and lung were rapidly collected from each animal at different time points, individually wrapped in aluminum foil, snap-frozen in liquid nitrogen, and stored frozen at -80°C until use.
(§6) Dissected tissue was thawed, rinsed with ice-cold saline, blotted dry, and weighed. Each tissue sample (100 mg) was homogenized in 100 μL phosphate-buffered saline (PBS) using homogenizer (MP Fastprep instrument, MP Biomedical, Solon, OH, USA). The homogenates were transferred into clean tubes and mixed with 700 μL of methanol by vortexing for 5 min. Homogenates were centrifuged at 15,700 × g for 15 min at 4°C, and the supernatants were collected and evaporated to dryness at room temperature under a stream of nitrogen gas. The residue was diluted with 100 μL 70% methanol.
(§7) HPLC analysis was performed using a Jasco HPLC system equipped with a Jasco UV-2089 plus quaternary gradient pump, a Jasco MD-2010 plus multiple-wave-length detector, and Borwin chromatography software, version 1.5 (Jasco Inc., Easton, MD, USA). Separation was achieved using an XTerra RP18 column (4.6 × 250mm, 5 μM, Waters, Milford, MA, USA). […]

[2] = Tissue distribution of AITC metabolites after oral AITC (HPLC); details: rat liver, kidney, spleen, heart, lung; 0.5-8 h after oral AITC
Experimental: as §5, §6, §7

3T3-L1 preadipocytes = test: MDI-induced adipocyte differentiation of 3T3-L1 preadipocytes, Oil Red O staining; format: cell-based; details: treated days 0 to 2, stained after 8 days
Experimental: (§1) 3T3-L1 pre-adipocyte cells were purchased from the ATCC (Manassas, VA, USA). Cells were maintained in DMEM supplemented with 10% calf serum (CS), 100 U/mL penicillin and 100 μg/mL streptomycin at 37°C in a 5% CO2 incubator. The cells were seeded onto a 6-well plate at a density of 4 × 10^5 cells per well, and cell differentiation was induced. In brief, beginning at 2 days post-confluence (day 0), cells were incubated for 2 days in DMEM containing 0.5 mM 3-isobutyl-1-methylxanthine (IBMX), 1 μM dexamethasone, 1 μg/mL of insulin, and 10% fetal bovine serum (FBS). After induction, the medium was replaced with DMEM containing 10% FBS and 1 μg/mL of insulin, and the cells were incubated for 2 more days, after which the cells were maintained in DMEM containing 10% FBS until they reached maturity. From days 0 to 2, the cells were exposed to the AITC metabolites.
(§2) Oil Red O staining was performed on day 8. Prior to quantification, the cells were fixed in 10% neutral formalin for 1 h at room temperature, washed with PBS, and stained for 1 h with 0.5% Oil Red O in 60% isopropanol. After staining, the cells were washed with distilled water and observed under a fluorescence microscope. […] The optical density was measured at a wavelength of 490 nm using microplate reader (Tecan Infinite 200 PRO, Männedorf, Switzerland).

[3] = Plasma pharmacokinetics of AITC metabolites after oral administration of AITC (HPLC); format: in vivo; details: male, Sprague-Dawley, rat plasma, metabolite after oral AITC 25 mg/kg, n = 5; for Cmax: read-out: Cmax (maximum plasma concentration); for half-life: read-out: T1/2 (elimination half-life) (converted); for AUC(0-t): unit printed in text b47 only, read-out: AUC (0-8h)
Experimental: Methanol (700 μL) was added to 300 μL of serum and the mixture was mixed by vortexing for 5 min. […] The internal standards (synthesized metabolites) were added to the plasma samples for validation.
(§3) Non-compartmental (mode-independent) nutrikinetic parameters were derived using PK Solutions software version 2.0 (Summit Research Services, Montrose, CO, USA). The maximum plasma concentration (Cmax), time to maximum plasma concentration (Tmax), and the elimination half-life (t1/2) were estimated from the plasma concentration-time curve. The area under the curve (AUC) for the plasma concentration over time was calculated using the trapezoidal rule.
A validated analytical method was employed to study the pharmacokinetic profiles of AITC metabolites after oral administration of 25 mg/kg AITC dose to rats. The mean plasma concentration-time curves of the AITC metabolites and the corresponding pharmacokinetic parameters are shown in Fig 2B and 2C . The pharmacokinetic analysis was performed with PK solution 2.0 software, using a non-compartmental model for data analysis. After oral administration of AITC, GSH-AITC and NAC-AITC were detected in the plasma. The Tmax values for GSH-AITC and NAC-AITC were similar at 0.5h. […] The areas under the curve of the concentration-time profile (AUC0-8h) of GSH-AITC and NAC-AITC were 1.3 and 12.33 μg·h/mL, respectively.

mTORC1 = mTORC1 activity (S6K1 and 4EBP1 phosphorylation) during 3T3-L1 adipocyte differentiation, western blot; format: cell-based
Experimental: as §1
(§4) 3T3-L1 adipocytes were scraped into a lysis buffer containing 40 mM HEPES (pH 7.4), 120 mM NaCl, 1 mM EDTA, 50 mM NaF, 1.5 mM Na3VO4, 10 mM β–glycerophosphate, and 1% Triton X-100, supplemented with EDTA-free phosphatase and a protease inhibitor cocktail (#78441; Thermo Scientific, Waltham, MA, USA). Next, the cells were lysed by sonication twice for 15 sec on ice using a sonicator (Misonix, Farmingdale, NY, USA). […]

[4] = Urine concentration and pharmacokinetics of AITC metabolites after oral AITC (HPLC); format: in vivo; details: rat urine; for Detection in urine samples: HPLC
Experimental: as §3
In addition to our evaluations of plasma levels, we also determined the concentration of AITC metabolites in urine using HPLC. […] NAC-AITC was mostly excreted within 8 h (Fig 3C).

PPAR-γ, C/EBPα, and FAS = test: Western blotting of adipogenesis proteins in 3T3-L1 cells; format: cell-based
Experimental: as §1, §4

Hepa 1–6 cells = test: Oleic acid-induced lipid accumulation in hepatocytes, Oil Red O; format: cell-based, mouse; details: hepatocytes (Hepa 1–6), 100 μM oleic acid, 24h
Experimental: HepG2 (human hepatoma cell line) and Hepa 1–6 (mouse hepatoma cell line) cells were obtained from ATCC (Manassas, VA, USA) and grown in high glucose DMEM supplemented with 10% FBS, 100 U/mL penicillin, and 100 μg/mL streptomycin. For examination of lipid accumulation in hepatocytes, the cells were treated with AITC metabolites in presence of 100 μM oleic acid for 24h.
as §2
Fig 6 Inhibitory effects of GSH-AITC and NAC-AITC on oleic acid-induced lipid accumulation. […] The intracellular triglyceride levels were indexed by quantifying the Oil Red O extracted from the cells by spectroscopy performed at an […] of 490 nm (B). The SCD1, FAS, and AMPK levels in cell lysates were detected by western blot analysis. To compare and quantify levels of proteins, the density of each band was measured using ImageJ software with β–actin as an internal reference (C). […]

[5] = set-up: method as in PMID 3961819; details: cellular medium; cited from earlier work
[6] = male, Sprague-Dawley, 25 mg/kg, n = 5

SMILES	Detection of parent molecule in plasma and tissues [1]	Tissue deposition (by tissue weight) [2]	Differentiation of 3T3-L1 preadipocytes (Oil Red O) (3T3-L1 preadipocytes)	Tmax [3]	Cmax [3]	half-life [3]	AUC(0-t) [3]	S6K1 phosphorylation on Thr389 (mTORC1)	Detection in urine samples [4]	Levels of PPAR-γ, C/EBPα, and FAS (PPAR-γ, C/EBPα, and FAS)	Oleic acid-induced lipid accumulation (Hepa 1–6 cells)	Fraction converted to free AITC [5]	Cmax [4, 6]	Tmax [4, 6]	AUC(0-t) ([4]; male, Sprague-Dawley, 25 mg/kg, n = 5, read-out: AUC (0-8h) in urine)	half-life ([4]; male, Sprague-Dawley, 25 mg/kg, n = 5, read-out: T1/2 in urine (converted))	Time within which mostly excreted in urine [4]
C=CCN=C=S [AITC, Allyl-isothiocyanate]	not detected																
C=CCNC(=S)SC[C@H](NC(=O)CC[C@H](N)C(=O)O)C(=O)NCC(=O)O [GSH-AITC, S-(N-allylthiocarbamoyl)-L-glutathione]		observed in the liver, followed by the kidney, spleen, heart, and lung	inhibited differentiation of preadipocytes	0.5 h	1470 ng/mL	0.92 h	1300 ng·h/mL	reduced	not detected	reduced	suppressed	9–15%					
C=CCNC(=S)SC[C@H](NC(C)=O)C(=O)O [NAC-AITC, N-acetyl-S-(N-allylthiocarbamoyl)- l-cysteine]		observed in the kidney	inhibited differentiation of preadipocytes	0.5 h	14000 ng/mL	2.65 h	12300 ng·h/mL	reduced	successfully quantified	reduced	suppressed		2260 ng/mL	2.66 h	8110 ng·h/mL	1.44 h	≤ 8 h
